Where a name gives a salt, the structure may show the parent alone.
Assays:
[1] = target: T1, rat histamine H3 receptor (Rattus norvegicus, UniProt Q9QYN8); assay: Rat H3 radioligand binding ([3H]-N-alpha-methylhistamine, CHO-A3 cell membranes); settings: Rat H3 binding constant, class symbols; read-out: rH3 Ki
T1 construct: encoding the entire 445-amino-acid rat histamine H3 receptor; expressed in transfected cells
Excerpt: Cell line development and membrane preparation. The rat H3 receptor cDNA was PCR amplified from reverse-transcribed RNA pooled from rat thalamus, hypothalamus, striatum and prefrontal cortex with a sequence corresponding to by #338-1672 of Genbank file #NM_053506, encoding the entire 445-amino-acid rat histamine H3 receptor. This was engineered into the pIRES-neo3 mammalian expression vector, which was stably transfected into the CHO-A3 cell line (Euroscreen, Belgium), followed by clonal selection by limiting dilution. Cells were harvested and cell pellets were frozen (−80° C.). Cell pellets were resuspended in 5 mM Tris-HCl, pH 7.5 with 5 nM EDTA and a cocktail of protease inhibitors (Complete Protease Inhibitor Tablets, Roche Diagnostics). Cells were disrupted using a polytron cell homogenizer and the suspension was centrifuged at 1000×g for 10 minutes at 4° C. The pellet was discarded and the supernatant centrifuged at 40,000×g for 30 min at 4° C. This membrane pellet was washed in membrane buffer containing 50 mM Tris-HCl, pH 7.5 with 0.6 mM EDTA, 5 mM MgCl2 and protease inhibitors, recentrifuged as above and the final pellet resuspended in membrane buffer plus 250 mM sucrose and frozen at −80° C.
(§1) Radioligand Binding. Membranes were resuspended in 50 mM Tris HCl (pH 7.4), 5 mM MgCl2, 0.1% BSA. The membrane suspensions (10 μg protein per well) were incubated in a 96 well microtiter plate with [^3H]-N-alpha-methylhistamine (approximately 1 nM final concentration), test compounds at various concentrations (0.01 nM-30 μM) and scintillation proximity beads (Perkin Elmer, FlashBlueGPCR Scintillating Beads) in a final volume of 80 μl for 4 hours at room temperature, protected from light. Non-specific binding was determined in the presence of 10 μM clobenpropit. Radioligand bound to receptor, and therefore in proximity to the scintillation beads, was measured using a MicroBeta scintillation counter.

human H3 receptor = target: T2, human H3 receptor (Homo sapiens, UniProt Q9Y5N1); assay: Human H3 radioligand binding ([3H]-N-alpha-methylhistamine, CHO cell membranes); settings: Human H3 binding constant, class symbols; read-out: hH3 Ki
T2 construct: expressed in transfected cells
Description: Methods: CHO cells stably expressing the human H3 receptor (GenBank: NM_007232) were harvested and cell pellets were frozen (−80° C.). Cell pellets were resuspended in 5 mM Tris-HCl, pH 7.5 with 5 nM EDTA and a cocktail of protease inhibitors (Complete Protease Inhibitor Tablets, Roche Diagnostics). Cells were disrupted using a polytron cell homogenizer and the suspension was centrifuged at 1000×g for 10 minutes at 4° C. The pellet was discarded and the supernatant centrifuged at 40,000×g for 30 min at 4° C. This membrane pellet was washed in membrane buffer containing 50 mM Tris-HCl, pH 7.5 with 0.6 mM EDTA, 5 mM MgCl2 and protease inhibitors, recentrifuged as above and the final pellet resuspended in membrane buffer plus 250 mM sucrose and frozen at −80° C.
as §1

T2 sequence (Q9Y5N1 whole entry): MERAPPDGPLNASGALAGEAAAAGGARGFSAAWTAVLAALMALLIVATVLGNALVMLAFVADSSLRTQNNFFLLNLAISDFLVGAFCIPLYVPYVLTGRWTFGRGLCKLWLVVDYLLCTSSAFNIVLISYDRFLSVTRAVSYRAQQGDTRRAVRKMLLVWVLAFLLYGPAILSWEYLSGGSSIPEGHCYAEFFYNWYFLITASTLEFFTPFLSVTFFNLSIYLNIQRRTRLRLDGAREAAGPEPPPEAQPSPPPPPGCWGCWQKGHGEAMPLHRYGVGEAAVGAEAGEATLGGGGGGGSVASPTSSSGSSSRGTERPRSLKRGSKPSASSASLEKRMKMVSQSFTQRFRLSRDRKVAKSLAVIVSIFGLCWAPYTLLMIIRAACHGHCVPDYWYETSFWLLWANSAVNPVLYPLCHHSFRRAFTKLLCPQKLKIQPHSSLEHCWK
T1 sequence (Q9QYN8 whole entry): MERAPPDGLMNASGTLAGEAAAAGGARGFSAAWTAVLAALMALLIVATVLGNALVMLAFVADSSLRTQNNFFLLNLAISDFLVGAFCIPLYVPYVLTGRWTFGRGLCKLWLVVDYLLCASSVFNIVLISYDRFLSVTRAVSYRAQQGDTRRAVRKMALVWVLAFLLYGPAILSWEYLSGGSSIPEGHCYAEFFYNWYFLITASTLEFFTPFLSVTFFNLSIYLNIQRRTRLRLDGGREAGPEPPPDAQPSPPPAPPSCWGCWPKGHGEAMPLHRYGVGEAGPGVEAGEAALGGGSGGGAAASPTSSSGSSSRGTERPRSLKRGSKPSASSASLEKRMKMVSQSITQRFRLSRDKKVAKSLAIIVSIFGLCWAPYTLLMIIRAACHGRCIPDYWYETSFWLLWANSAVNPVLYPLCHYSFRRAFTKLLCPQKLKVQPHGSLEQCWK

| Structure (SMILES) | Ki [1] | Ki (human H3 receptor) |
| --- | --- | --- |
| CC(C)N1N=C(c2ccc3c(c2)CCNCC3)CCC1=O [Example 3, 2-Isopropyl-6-(2,3,4,5-tetrahydro-1H-benzo[d]azepin-7-yl)-4,5-dihydro-2H-pyridazin-3-one] | 100 to 1000 nM | 100 to 1000 nM |
| CC(C)n1nc(-c2ccc3c(c2)CCNCC3)ccc1=O [Example 5, 2-Isopropyl-6-(2,3,4,5-tetrahydro-1H-benzo[d]azepin-7-yl)-2H-pyridazin-3-one] | 100 to 1000 nM | 100 to 1000 nM |
| CC(C)N1CCc2ccc(-c3ccc(=O)n(C)n3)cc2CC1 [Example 22, 6-(3-Isopropyl-2,3,4,5-tetrahydro-1H-benzo[d]azepin-7-yl)-2-methyl-2H-pyridazin-3-one. HCl] | 100 to 1000 nM | 100 to 1000 nM |
| Cn1nc(-c2ccc3c(c2)CCN(C2CCCC2)CC3)ccc1=O [Example 23, 6-(3-Cyclopentyl-2,3,4,5-tetrahydro-1H-benzo[d]azepin-7-yl)-2-methyl-2H-pyridazin-3-one. HCl] | 100 to 1000 nM | < 100 nM |
| CS(=O)(=O)c1ccc(-n2nc(-c3ccc4c(c3)CCNCC4)ccc2=O)cc1 [Example 24, 2-(4-Methanesulfonyl-phenyl)-6-(2,3,4,5-tetrahydro-1H-benzo[d]azepin-7-yl)-2H-pyridazin-3-one] | – | > 1000 nM |
| Cn1ncc(Oc2ccc3c(c2)CCN(C2CCC2)CC3)c(Cl)c1=O [Example 30, 4-Chloro-5-(3-cyclobutyl-2,3,4,5-tetrahydro-1H-benzo[d]azepin-7-yloxy)-2-methyl-2H-pyridazin-3-one] | < 100 nM | < 100 nM |
| Cn1ncc(Oc2ccc3c(c2)CCN(C2CCC2)CC3)c(Br)c1=O [Example 31, 4-Bromo-5-(3-cyclobutyl-2,3,4,5-tetrahydro-1H-benzo[d]azepin-7-yloxy)-2-methyl-2H-pyridazin-3-one] | < 100 nM | < 100 nM |
| Cn1ncc(Oc2ccc3c(c2)CCN(C2CCCC2)CC3)c(Br)c1=O [Example 32, 4-Bromo-5-(3-cyclopentyl-2,3,4,5-tetrahydro-1H-benzo[d]azepin-7-yloxy)-2-methyl-2H-pyridazin-3-one] | < 100 nM | < 100 nM |
| O=c1c(Cl)c(Oc2ccc3c(c2)CCN(C2CCC2)CC3)cnn1-c1ccccn1 [Example 33, 4-Chloro-5-(3-cyclobutyl-2,3,4,5-tetrahydro-1H-benzo[d]azepin-7-yloxy)-2-pyridin-2-yl-2H-pyridazin-3-one] | < 100 nM | < 100 nM |
| O=c1c(Cl)c(Oc2ccc3c(c2)CCN(C2CCC2)CC3)cnn1CC(F)(F)F [Example 34, 4-Chloro-5-(3-cyclobutyl-2,3,4,5-tetrahydro-1H-benzo[d]azepin-7-yloxy)-2-(2,2,2-trifluoro-ethyl)-2H-pyridazin-3-one] | 100 to 1000 nM | < 100 nM |
| Cn1ncc(Oc2ccc3c(c2)CCN(C2CCC2)CC3)cc1=O [Example 35, 5-(3-Cyclobutyl-2,3,4,5-tetrahydro-1H-benzo[d]azepin-7-yloxy)-2-methyl-2H-pyridazin-3-one] | 100 to 1000 nM | < 100 nM |
| Cn1ncc(Oc2ccc3c(c2)CCN(C2CCCC2)CC3)cc1=O [Example 36, 5-(3-Cyclopentyl-2,3,4,5-tetrahydro-1H-benzo[d]azepin-7-yloxy)-3-methyl-2H-pyridazin-3-one] | 100 to 1000 nM | < 100 nM |
| COCn1ncc(Oc2ccc3c(c2)CCN(C2CCC2)CC3)cc1=O [Example 37, 5-(3-Cyclobutyl-2,3,4,5-tetrahydro-1H-benzo[d]azepin-7-yloxy)-2-methoxymethyl-2H-pyridazin-3-one] | 100 to 1000 nM | < 100 nM |
| COCn1ncc(Oc2ccc3c(c2)CCN(C2CCCC2)CC3)cc1=O [Example 38, 5-(3-Cyclopentyl-2,3,4,5-tetrahydro-1H-benzo[d]azepin-7-yloxy)-2-methoxymethyl-2H-pyridazin-3-one] | 100 to 1000 nM | < 100 nM |
| O=C1NN=C(c2ccc3c(c2)CCNCC3)C2CC12 (centres unmarked) [Example 39, 5-(2,3,4,5-Tetrahydro-1H-benzo[d]azepin-7-yl)-3,4-diaza-bicyclo[4.1.0]hept-4-en-2-one] | 100 to 1000 nM | 100 to 1000 nM |

Reference: patent US20110098269A1, “Substituted Pyridazinone Derivatives as Histamine-3 (H3) Receptor Ligands” (Cephalon, Inc., priority 2008, published 2011)
